The supplement of paper PMC10307832

What was measured:
Test in all cases: relative viability (nuclei count vs DMSO), 5 days (fraction); higher = more cells survive
COR-L 105 = system: COR-L 105
Summary of the method: (§1)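 One day after seeding in 1536-well plates, lung cancer cell lines were dosed by pin tool. Dosing was either single-drug or a fixed anchor-drug dose plus five library-drug doses (not always all listed) in √10 steps. After 5 days, nuclei were stained in one fix-and-stain step and counted on 4× images, and relative viability is the nuclei count of treated wells over that of vehicle wells, given as the median of duplicate plates.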

SK-LU-1 = system: SK-LU-1
Summary of the method: as §1

SK-MES-1 = system: SK-MES-1
Summary of the method: as §1

NCI-H2347 = system: NCI-H2347
Summary of the method: as §1

LXF-289 = system: LXF-289
Summary of the method: as §1

NCI-H1395 = system: NCI-H1395
Summary of the method: as §1

NCI-H1755 = system: NCI-H1755
Summary of the method: as §1

NCI-H661 = system: NCI-H661
Summary of the method: as §1

EKVX = system: EKVX
Summary of the method: as §1

NCI-H1437 = system: NCI-H1437
Summary of the method: as §1

NCI-H1651 = system: NCI-H1651
Summary of the method: as §1

NCI-H2085 = system: NCI-H2085
Summary of the method: as §1

H3255 = system: H3255
Summary of the method: as §1

NCI-H1793 = system: NCI-H1793
Summary of the method: as §1

LC-2-ad = system: LC-2-ad
Summary of the method: as §1

LK-2 = system: LK-2
Summary of the method: as §1

CAL-12T = system: CAL-12T
Summary of the method: as §1

PC-3 [JPC-3] = system: PC-3 [JPC-3]
Summary of the method: as §1

NCI-H1944 = system: NCI-H1944
Summary of the method: as §1

NCI-H2087 = system: NCI-H2087
Summary of the method: as §1

EMC-BAC-2 = system: EMC-BAC-2
Summary of the method: as §1

NCI-H2228 = system: NCI-H2228
Summary of the method: as §1

NCI-H1915 = system: NCI-H1915
Summary of the method: as §1

`O=C(O)CCCCC(CCSCc1ccccc1)SCc1ccccc1` (stereo not drawn) [CPI-613] + O=C(c1cc(Cc2n[nH]c(=O)c3ccccc23)ccc1F)N1CCN(C(=O)C2CC2)CC1 [Olaparib] (partner 8 µM) gave a relative viability (COR-L 105; first compound 5 µM) of 0.78, a relative viability (COR-L 105; first compound 15.81 µM) of 0.685 and a relative viability (COR-L 105; first compound 50 µM) of 0.739. The relative viability (COR-L 105; first compound 158.11 µM) was 0.268, the relative viability (COR-L 105; first compound 500 µM) was 0.28 and the relative viability (SK-LU-1; first compound 5 µM) was 0.416. The relative viability (SK-LU-1; first compound 15.81 µM) was 0.392, the relative viability (SK-LU-1; first compound 50 µM) was 0.427 and the relative viability (SK-LU-1; first compound 158.11 µM) was 0.352. For the same compound, the relative viability (SK-LU-1; first compound 500 µM) was 0.238, the relative viability (SK-MES-1; first compound 5 µM) was 0.641 and the relative viability (SK-MES-1; first compound 15.81 µM) was 0.635. The relative viability (SK-MES-1; first compound 50 µM) was 0.556, the relative viability (SK-MES-1; first compound 158.11 µM) was 0.163 and the relative viability (SK-MES-1; first compound 500 µM) was 0.0936. The relative viability (NCI-H2347; first compound 5 µM) was 0.535, the relative viability (NCI-H2347; first compound 15.81 µM) was 0.505 and the relative viability (NCI-H2347; first compound 50 µM) was 0.562. It also gave a relative viability (NCI-H2347; first compound 158.11 µM) of 0.495, a relative viability (NCI-H2347; first compound 500 µM) of 0.349 and a relative viability (LXF-289; first compound 5 µM) of 0.988. It also gave a relative viability (LXF-289; first compound 15.81 µM) of 1, a relative viability (LXF-289; first compound 50 µM) of 1 and a relative viability (LXF-289; first compound 158.11 µM) of 0.692. For the same compound, the relative viability (LXF-289; first compound 500 µM) was 0.8, the relative viability (NCI-H1395; first compound 5 µM) was 0.473 and the relative viability (NCI-H1395; first compound 15.81 µM) was 0.479. The relative viability (NCI-H1395; first compound 50 µM) was 0.469, the relative viability (NCI-H1395; first compound 158.11 µM) was 0.436 and the relative viability (NCI-H1395; first compound 500 µM) was 0.266. It also gave a relative viability (NCI-H1755; first compound 5 µM) of 0.91, a relative viability (NCI-H1755; first compound 15.81 µM) of 0.894 and a relative viability (NCI-H1755; first compound 50 µM) of 0.954. The relative viability (NCI-H1755; first compound 158.11 µM) was 0.751, the relative viability (NCI-H1755; first compound 500 µM) was 0.805 and the relative viability (NCI-H661; first compound 5 µM) was 0.714. For the same compound, the relative viability (NCI-H661; first compound 15.81 µM) was 0.726, the relative viability (NCI-H661; first compound 50 µM) was 0.718 and the relative viability (NCI-H661; first compound 158.11 µM) was 0.399. The relative viability (NCI-H661; first compound 500 µM) was 0.153, the relative viability (EKVX; first compound 5 µM) was 0.756 and the relative viability (EKVX; first compound 15.81 µM) was 0.862. The relative viability (EKVX; first compound 50 µM) was 0.856, the relative viability (EKVX; first compound 500 µM) was 0.802 and the relative viability (NCI-H1437; first compound 5 µM) was 0.599. It also gave a relative viability (NCI-H1437; first compound 15.81 µM) of 0.595, a relative viability (NCI-H1437; first compound 50 µM) of 0.508 and a relative viability (NCI-H1437; first compound 158.11 µM) of 0.112. For the same compound, the relative viability (NCI-H1437; first compound 500 µM) was 0.0622, the relative viability (NCI-H1651; first compound 5 µM) was 0.189 and the relative viability (NCI-H1651; first compound 15.81 µM) was 0.192. It also gave a relative viability (NCI-H1651; first compound 50 µM) of 0.189, a relative viability (NCI-H1651; first compound 158.11 µM) of 0.198 and a relative viability (NCI-H1651; first compound 500 µM) of 0.175. It also gave a relative viability (NCI-H2085; first compound 5 µM) of 0.745, a relative viability (NCI-H2085; first compound 15.81 µM) of 0.712 and a relative viability (NCI-H2085; first compound 50 µM) of 0.725. The relative viability (NCI-H2085; first compound 158.11 µM) was 0.362, the relative viability (NCI-H2085; first compound 500 µM) was 0.209 and the relative viability (H3255; first compound 5 µM) was 0.539. For the same compound, the relative viability (H3255; first compound 15.81 µM) was 0.587, the relative viability (H3255; first compound 50 µM) was 0.557 and the relative viability (H3255; first compound 158.11 µM) was 0.527. The relative viability (H3255; first compound 500 µM) was 0.517, the relative viability (NCI-H1793; first compound 5 µM) was 0.75 and the relative viability (NCI-H1793; first compound 15.81 µM) was 0.789. The relative viability (NCI-H1793; first compound 50 µM) was 0.856, the relative viability (NCI-H1793; first compound 158.11 µM) was 0.146 and the relative viability (NCI-H1793; first compound 500 µM) was 0.0648. For the same compound, the relative viability (LC-2-ad; first compound 5 µM) was 0.629, the relative viability (LC-2-ad; first compound 15.81 µM) was 0.634 and the relative viability (LC-2-ad; first compound 50 µM) was 0.653. For the same compound, the relative viability (LC-2-ad; first compound 158.11 µM) was 0.214, the relative viability (LC-2-ad; first compound 500 µM) was 0.0817 and the relative viability (LK-2; first compound 5 µM) was 0.714. For the same compound, the relative viability (LK-2; first compound 15.81 µM) was 0.702, the relative viability (LK-2; first compound 50 µM) was 0.749 and the relative viability (LK-2; first compound 158.11 µM) was 0.796. The relative viability (LK-2; first compound 500 µM) was 0.736, the relative viability (CAL-12T; first compound 5 µM) was 0.72 and the relative viability (CAL-12T; first compound 15.81 µM) was 0.634. It also gave a relative viability (CAL-12T; first compound 50 µM) of 0.627, a relative viability (CAL-12T; first compound 158.11 µM) of 0.473 and a relative viability (CAL-12T; first compound 500 µM) of 0.488. For the same compound, the relative viability (PC-3 [JPC-3]; first compound 5 µM) was 1.11, the relative viability (PC-3 [JPC-3]; first compound 50 µM) was 0.953 and the relative viability (PC-3 [JPC-3]; first compound 158.11 µM) was 0.32. For the same compound, the relative viability (PC-3 [JPC-3]; first compound 500 µM) was 0.1, the relative viability (NCI-H1944; first compound 5 µM) was 0.404 and the relative viability (NCI-H1944; first compound 15.81 µM) was 0.401. It also gave a relative viability (NCI-H1944; first compound 50 µM) of 0.491, a relative viability (NCI-H1944; first compound 158.11 µM) of 0.288 and a relative viability (NCI-H1944; first compound 500 µM) of 0.383. For the same compound, the relative viability (NCI-H2087; first compound 5 µM) was 0.517, the relative viability (NCI-H2087; first compound 15.81 µM) was 0.522 and the relative viability (NCI-H2087; first compound 50 µM) was 0.627. It also gave a relative viability (NCI-H2087; first compound 158.11 µM) of 0.0403, a relative viability (NCI-H2087; first compound 500 µM) of 0.0077 and a relative viability (EMC-BAC-2; first compound 5 µM) of 0.508. It also gave a relative viability (EMC-BAC-2; first compound 15.81 µM) of 0.432, a relative viability (EMC-BAC-2; first compound 50 µM) of 0.484 and a relative viability (EMC-BAC-2; first compound 158.11 µM) of 0.199. It also gave a relative viability (EMC-BAC-2; first compound 500 µM) of 0.229, a relative viability (NCI-H2228; first compound 5 µM) of 0.532 and a relative viability (NCI-H2228; first compound 15.81 µM) of 0.411. The relative viability (NCI-H2228; first compound 50 µM) was 0.634, the relative viability (NCI-H2228; first compound 158.11 µM) was 0.628 and the relative viability (NCI-H2228; first compound 500 µM) was 0.185. The relative viability (NCI-H1915; first compound 5 µM) was 0.25, the relative viability (NCI-H1915; first compound 15.81 µM) was 0.258 and the relative viability (NCI-H1915; first compound 50 µM) was 0.265. The relative viability (NCI-H1915; first compound 158.11 µM) was 0.124 and the relative viability (NCI-H1915; first compound 500 µM) was 0.0608.
